This is an account of results in article PMC2582943 (Antiviral Research, 2008).

For one experiment, the system named is Vero 76 cells. In words: cells. In kind it is cell-based, African green monkey.
Experiment [1] concerns SARS-CoV (strain Urbani). Description: microbe, parasite or virus in culture. In kind it is cell-based.
Experiment [2] relates to SARS-CoV (strain Urbani). In words: microbe, parasite or virus in culture. In kind it is cell-based. The source holds these as a separate data set.
The subject of experiment [3] is SARS-CoV Frankfurt-1 strain. Description: microbe, parasite or virus in culture. In kind it is cell-based.
In experiment [4] the test system is SARS-CoV CHUK-W1 strain. In words: microbe, parasite or virus in culture. The class given is cell-based. The settings on record: read-out: Neutral red uptake assay EC50 ± S.D.
The test system of experiment [5] is SARS-CoV Frankfurt-1 strain. Description: microbe, parasite or virus in culture. To be noted: read-out: VYR assay EC90 ± S.D. In kind it is cell-based.
Experiment [6] has as its system SARS-CoV Toronto-2 strain. In words: microbe, parasite or virus in culture. In kind it is cell-based.
In experiment [7] the test system is SARS-CoV Toronto-2 strain. Description: microbe, parasite or virus in culture. In kind it is cell-based. To be noted: read-out: VYR assay EC90 ± S.D.
For experiment [8], the system named is SARS-CoV CHUK-W1 strain. In words: microbe, parasite or virus in culture. The class given is cell-based. The settings on record: read-out: VYR assay EC90 ± S.D.
Where [9] appears, read: Chlorocebus sabaeus, Vero 76, read-out: Neutral red uptake assay IC50.
Where [10] appears, read: Severe acute respiratory syndrome coronavirus, Vero 76, read-out: Virus yield reduction assay EC90.
Setting [11] is: Chlorocebus sabaeus, Vero 76, read-out: Virus yield reduction assay IC50.
Setting [12] is: Severe acute respiratory syndrome coronavirus, Vero 76, read-out: Neutral red uptake assay EC50.
The mark [13] stands for this setting: read-out: Virus yield reduction assay EC90.
Where [14] appears, read: read-out: Neutral red uptake assay IC50.
Setting [15] is: read-out: Virus yield reduction assay IC50.
Setting [16] is: read-out: Neutral red uptake assay EC50.
The mark [17] stands for this setting: read-out: Neutral red uptake assay EC50 ± S.D.

Each structure is given as a SMILES string. Several values for one entry are separate records, joined by “and”; a condition that tells them apart may be missing. Equal entries are not always repeated. Structures can show the parent of a compound that is named as a salt. Where two headings read alike, the source gives them in different places. Peptide text beside a SMILES is read from it.

One may read the IC50 as the concentration that gives 50% inhibition. With `c1ccc2c(c1)Nc1ccccc1S2` [Phenothiazine], the IC50 with Vero 76 cells (setting [9]) amounted to 56.5 ± 61.5 µM. In addition, the “Neutral red uptake assay SI” value in the experiment on SARS-CoV (strain Urbani) [1] was found to be 2.6.

As a reminder, the EC90 is the concentration at which the effect reaches the 90% level. The term EC50 denotes the concentration giving half of the maximal effect. With `COc1ccc2c(c1)N(C[C@H](C)CN(C)C)c1ccccc1S2` [Methotrimeprazine], the “Virus yield reduction assay SI” value in the experiment with SARS-CoV (strain Urbani) [2] is on record as 1.7. Besides, in the experiment on SARS-CoV (strain Urbani) [2] (setting [10]), the EC90 was 12.3 ± 1.7 µM. Moreover, the IC50 with Vero 76 cells (setting [9]) came out at 26 ± 10.8 µM; with Vero 76 cells (setting [11]), 21 ± 5.4 µM. Also, the “Neutral red uptake assay SI” value in the experiment with SARS-CoV (strain Urbani) [1] is 1.4. In addition, the EC50 with SARS-CoV (strain Urbani) [1] (setting [12]) is 19 ± 8.1 µM.

As to `CCC(=O)c1ccc2c(c1)N(CCCN(C)C)c1ccccc1S2` [Propionylpromazine·HCl], the “Virus yield reduction assay SI” value in the experiment with SARS-CoV (strain Urbani) [2] was determined as 1.4. In addition, the IC50 with Vero 76 cells (setting [11]) was 19.3 ± 2.2 µM. For the same compound, in the experiment with SARS-CoV (strain Urbani) [1], the “Inhibition of virus replication in vitro (in words)” value (from here on “Inhibition of virus replication”) was “essentially inactive” and the “Neutral red uptake assay SI” value is listed as <1. The EC50 with SARS-CoV (strain Urbani) [1] (setting [12]) was determined as 24.3 ± 15.6 µM.

Consider `CCOS(=O)(=O)[O-].CC[n+]1c2ccccc2nc2ccccc21` [Phenazine ethosulfate], for which, in the experiment on SARS-CoV (strain Urbani) [2], the “Virus yield reduction assay SI” value was 1.1. Besides, in the experiment with SARS-CoV (strain Urbani) [2] (setting [13]), the EC90 turned out to be 6.1 ± 4.3 µM. Also, the IC50 in the experiment on Vero 76 cells (setting [14]) and in the experiment on Vero 76 cells (setting [15]) was 6.6 ± 4.7 µM throughout. Moreover, the “Neutral red uptake assay SI” value with SARS-CoV (strain Urbani) [1] is 1.3. Also, the EC50 with SARS-CoV (strain Urbani) [1] (setting [16]) was determined as 5.2 ± 2.9 µM.

Take `OCCN1CCN(CCCN2c3ccccc3Sc3ccc(Cl)cc32)CC1` [Perphenazine]: in the experiment with SARS-CoV (strain Urbani) [2], the “Virus yield reduction assay SI” value turned out to be 1.9. Moreover, the IC50 in the experiment with Vero 76 cells (setting [11]) turned out to be 15.8 ± 3.4 µM. Besides, in the experiment with SARS-CoV (strain Urbani) [1], the “Neutral red uptake assay SI” value worked out at 1.6. Moreover, the half-maximal effective concentration (EC50) in the experiment with SARS-CoV (strain Urbani) [1] (setting [16]) was 9.7 ± 1.2 µM.

In the case of `CC(C)C[C@H](NC(=O)OCc1ccccc1)C(=O)N[C@@H](CC(C)C)C(=O)N[C@@H](Cc1ccc(O)cc1)C(=O)CF` [Calpain Inhibitor IV] (HELM PEPTIDE1{[O=C(OCc1ccccc1)[*:2]].L.L.Y.[FC[*:1]]}$$$$V2.0), the figures for the “Neutral red uptake assay SI” value (in experiment [3]; in [6]; with SARS-CoV (strain Urbani) [1]) were 9.5, 8.3 and 9.4, respectively. The EC50 is 4.6 ± 2.1 µM in experiment [3] (setting [17]); 2.6 ± 1.4 µM in the experiment on SARS-CoV CHUK-W1 strain [4]; 5.4 ± 1.4 µM in experiment [6] (setting [17]); 2.6 µM with SARS-CoV (strain Urbani) [1] (setting [16]); 2.6 ± 0.5 µM with SARS-CoV (strain Urbani) [1] (setting [17]). In addition, in the experiment with SARS-CoV (strain Urbani) [2], the “Virus yield reduction assay SI” value was 3.3. Further, the EC90 in the experiment on SARS-CoV (strain Urbani) [2] (read-out: VYR assay EC90 ± S.D.) came out at 7.2 ± 0.9 µM; with SARS-CoV (strain Urbani) [2] (setting [13]), 7.2 µM; in [5], 6.5 ± 3.6 µM; in experiment [7], 9.6 ± 3.1 µM; with SARS-CoV CHUK-W1 strain [8], 6.5 ± 3.6 µM. Moreover, the IC50 in the experiment with Vero 76 cells (setting [14]) is 24.7 ± 7 µM; in the experiment with Vero 76 cells (read-out: Neutral red uptake assay IC50 ± S.D.), 24.7 µM and 44 µM and 30 µM and 45 µM; with Vero 76 cells (setting [15]), 33 ± 4.1 µM. Further, the “Inhibition of virus replication” value in the experiment on SARS-CoV (strain Urbani) [1] is on record as “inhibited virus replication as expected”.

Turning to `OCCCN1c2ccccc2Sc2ccc(Cl)cc21` [2-Chloro-10-(3-chloropropanol)-10H-phenothiazine], the “Virus yield reduction assay SI” value in the experiment on SARS-CoV (strain Urbani) [2] is reported as <1. The concentration for an effect of 90% (EC90) in the experiment on SARS-CoV (strain Urbani) [2] (setting [13]) was determined as 27 ± 16.8 µM. Also, the IC50 in the experiment on Vero 76 cells (setting [14]) came to 20.8 ± 8.1 µM. Moreover, in the experiment on Vero 76 cells (setting [15]), the IC50 came to 20.8 ± 8.1 µM. In addition, in the experiment on SARS-CoV (strain Urbani) [1], the “Inhibition of virus replication” value was “essentially inactive” and the “Neutral red uptake assay SI” value is given as <1. The EC50 in the experiment with SARS-CoV (strain Urbani) [1] (setting [16]) came out at 23 ± 11 µM.

Take `c1ccc2c(c1)Oc1ccccc1S2` [Phenoxathiin]: in the experiment with SARS-CoV (strain Urbani) [2], the “Virus yield reduction assay SI” value is reported as 1.3. The EC90 with SARS-CoV (strain Urbani) [2] (setting [10]) is 752 ± 497 µM. In addition, the figures for the IC50 with Vero 76 cells (setting [9]) and in the experiment with Vero 76 cells (setting [11]) were 858 ± 208 µM and 968 ± 65 µM, respectively. Besides, the “Neutral red uptake assay SI” value in the experiment with SARS-CoV (strain Urbani) [1] is listed as 1.1. For the same compound, the EC50 in the experiment on SARS-CoV (strain Urbani) [1] (setting [12]) came to 763 ± 475 µM.
